Results as given in ChEMBL document CHEMBL1140825, “Cy3-3-acylcholine: a fluorescent analogue of acetylcholine for single molecule detection” (Bioorg Med Chem Lett, 2008).
Calls of active or inactive are those of the source. The rule behind the calls is not given here.

Legend:
Tetronarce californica [1] = assay: Displacement of non fluorescent acetylcholine from torpedo californica nACh receptor
Tetronarce californica [2] = assay: Binding affinity to Torpedo californica nACh receptor in reconstituted diphytanoylphosphatidylcholine/cholesterol vesicles
[3] = target: Neuronal acetylcholine receptor subunit alpha-4 (Gallus gallus) (UniProt P09482); assay: Agonist activity at chicken nACh receptor alpha4beta2 expressed in Xenopus laevis oocytes assessed as time taken for current to decay from its peak to 50% at 100 nM by two-electrode voltage clamp assay; type: functional, cell-based; conditions: Oocyte
Neuronal acetylcholine receptor subunit alpha-4 (Gallus gallus), sequence (P09482 whole entry): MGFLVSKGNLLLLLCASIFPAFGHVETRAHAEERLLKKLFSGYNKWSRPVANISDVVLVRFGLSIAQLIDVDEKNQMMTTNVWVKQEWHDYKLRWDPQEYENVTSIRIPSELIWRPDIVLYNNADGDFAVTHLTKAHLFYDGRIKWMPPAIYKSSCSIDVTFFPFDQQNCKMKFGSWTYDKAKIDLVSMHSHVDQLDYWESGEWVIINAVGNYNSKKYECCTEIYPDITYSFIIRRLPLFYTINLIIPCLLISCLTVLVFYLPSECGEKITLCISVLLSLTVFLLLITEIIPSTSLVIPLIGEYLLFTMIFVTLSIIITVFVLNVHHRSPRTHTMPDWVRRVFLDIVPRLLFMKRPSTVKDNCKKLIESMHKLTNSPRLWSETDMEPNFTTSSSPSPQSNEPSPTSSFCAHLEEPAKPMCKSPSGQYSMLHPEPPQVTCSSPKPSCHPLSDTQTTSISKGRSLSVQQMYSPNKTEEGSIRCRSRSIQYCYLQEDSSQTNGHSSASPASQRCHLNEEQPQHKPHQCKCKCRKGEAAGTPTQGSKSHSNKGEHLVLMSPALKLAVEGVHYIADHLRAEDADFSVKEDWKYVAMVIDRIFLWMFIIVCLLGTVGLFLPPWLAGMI

Activity (Tetronarce californica [1]): Active | Activity (Tetronarce californica [2]): Active | T1/2 [3]: 25 s
SMILES: CCN1/C(=C/C=C/C2=[N+](CCCCCC(=O)NCCCC(=O)OCC[N+](C)(C)C)c3ccc(S(=O)(=O)[O-])cc3C2(C)C)C(C)(C)c2cc(S(=O)(=O)[O-])ccc21
